{"source": "PubChem BioAssay AID602466", "about": "(Sanford-Burnham Center for Chemical Genomics, 2012)", "note": "Active and inactive are the calls of the source. The rule behind the calls is not given here."}
{"biological_target": "Neurotensin receptor type 1 (Homo sapiens) (UniProt P30989)", "sequence (P30989 whole entry, looked up)": "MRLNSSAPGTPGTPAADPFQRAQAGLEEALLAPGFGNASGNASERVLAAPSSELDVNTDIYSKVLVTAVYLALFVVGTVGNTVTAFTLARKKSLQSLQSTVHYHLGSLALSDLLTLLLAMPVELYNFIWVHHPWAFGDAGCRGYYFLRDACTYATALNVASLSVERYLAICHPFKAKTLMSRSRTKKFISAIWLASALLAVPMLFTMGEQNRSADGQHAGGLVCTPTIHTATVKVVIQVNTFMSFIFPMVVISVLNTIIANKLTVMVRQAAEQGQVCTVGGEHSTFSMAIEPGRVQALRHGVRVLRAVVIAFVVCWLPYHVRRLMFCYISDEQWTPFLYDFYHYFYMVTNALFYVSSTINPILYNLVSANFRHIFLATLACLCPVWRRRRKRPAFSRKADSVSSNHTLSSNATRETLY", "assay": "NTR1 agonist calcium signaling, SAR follow-up, cell-based, fluorescence, calcium flux, single concentration (AID 602466)", "settings": "NTR1-expressing cells, at 30 µM (top of the series)"}
{"compound": "COc1cc2c3nnc(-c4ccc(C)cc4)c-3cn(Cc3ccc(C)cc3)c2cc1OC", "activation": "132%"}
{"compound": "COc1cc2c3nnc(-c4ccc(F)cc4)c-3cn(Cc3ccc(C)cc3)c2cc1OC", "activation": "115%"}
{"compound": "COc1cccc(OC)c1-c1nc(C(=O)N[C@@H](CC(C)C)C(=O)O)cn1-c1ccnc2cc(Cl)ccc12", "activation": "102%"}
{"compound": "COc1cc2c3nnc(-c4ccc(C)c(C)c4)c-3cn(Cc3ccc(F)cc3)c2cc1OC", "activation": "38.2% (inactive)"}
{"compound": "COc1cc2c3nnc(-c4ccc(F)cc4)c-3cn(Cc3cccc(C)c3)c2cc1OC", "activation": "191%"}
{"compound": "COc1ccc(Cn2cc3c(-c4ccc(F)cc4)nnc-3c3cc(OC)c(OC)cc32)cc1", "activation": "56.6%"}
{"compound": "COc1cccc(OC)c1-c1nc(C(=O)N[C@@H](CC(C)C)C(=O)O)cn1-c1cccc2ccccc12", "activation": "110%"}
{"compound": "COc1ccc2c(c1)c1nnc(-c3ccc(F)cc3)c-1cn2Cc1ccccc1", "activation": "10.2% (inactive)"}
{"compound": "COc1cc2nc(-c3ccccc3)nc(N3CCN(c4ccccc4OC)CC3)c2cc1OC", "activation": "60.6%"}
{"compound": "COc1cc2nc(C3CCC3)nc(N3CCN(c4ccccc4C)CC3)c2cc1OC", "activation": "9.85% (inactive)"}
{"compound": "COc1ccccc1-c1cc(C(=O)N[C@@H](CC(C)C)C(=O)O)nn1-c1ccnc2cc(Cl)ccc12", "activation": "11.9%"}
{"compound": "COc1cc2c3nnc(-c4ccccc4)c-3cn(Cc3ccccc3)c2cc1OC", "activation": "55%"}
{"compound": "COc1cc2c3nnc(-c4ccc(F)cc4)c-3cn(Cc3ccc(F)cc3)c2cc1OC", "activation": "95.3%"}
{"compound": "COc1cc2nc(C)nc(N3CCN(c4ccccc4OC)CC3)c2cc1OC", "activation": "17.5% (inactive)"}
{"compound": "Cc1ccc(Cn2cc3c(-c4ccc(F)cc4)nnc-3c3ccccc32)cc1", "activation": "9.46% (inactive)"}
{"compound": "COc1cc2c3nnc(-c4ccc(Cl)cc4)c-3cn(Cc3ccccc3)c2cc1OC", "activation": "99.2%"}
{"compound": "COc1ccc(-c2nnc3c4cc(OC)c(OC)cc4n(Cc4ccc(C)cc4)cc2-3)cc1", "activation": "7.03% (inactive)"}
{"compound": "COc1cc2c3nnc(-c4ccc(F)cc4)c-3cn(Cc3ccc(Cl)cc3)c2cc1OC", "activation": "67.8%"}
{"compound": "COc1cccc(OC)c1-c1cc(C(=O)N[C@@H](CC(C)C)C(=O)O)nn1-c1ccnc2cc(Cl)ccc12", "activation": "48.7%"}
{"compound": "COc1cc2c3nnc(-c4ccc(F)cc4)c-3cn(Cc3ccccc3)c2cc1OC", "activation": "110%"}
{"compound": "COc1cc2c3nnc(-c4ccc(F)cc4)c-3cn(Cc3ccccc3N(C)C)c2cc1OC", "activation": "37.2% (inactive)"}
{"compound": "COc1cc2c3nnc(-c4ccc(F)cc4)c-3cn(Cc3ccc(OC(F)(F)F)cc3)c2cc1OC", "activation": "2.56% (inactive)"}
{"compound": "COc1cc2c3nnc(-c4ccc(C)c(C)c4)c-3cn(Cc3ccc(C)cc3)c2cc1OC", "activation": "131%"}
{"compound": "COc1ccc(-c2nc(C(=O)N[C@@H](CC(C)C)C(=O)O)cn2-c2ccnc3cc(Cl)ccc23)c(OC)c1", "activation": "35.9% (inactive)"}
{"compound": "COc1cccc(OC)c1-c1nc(C(=O)NC2(C(=O)O)C3CC4CC(C3)CC2C4)cn1-c1ccnc2cc(Cl)ccc12", "note": "(stereo not given)", "activation": "12.4% (inactive)"}
{"compound": "COc1cc2c3nnc(-c4ccc(Cl)cc4)c-3cn(Cc3ccc(F)cc3)c2cc1OC", "activation": "187%"}
{"compound": "COc1ccc2c(c1)c1nnc(-c3ccc(F)cc3)c-1cn2Cc1ccc(F)cc1", "activation": "39.5% (inactive)"}
{"compound": "Cc1ccc(Cn2cc3c(-c4ccc(F)cc4)nnc-3c3cc4c(cc32)OCO4)cc1", "activation": "13.4% (inactive)"}
{"compound": "Cc1cccc(C)c1-c1nc(C(=O)N[C@@H](CC(C)C)C(=O)O)cn1-c1ccnc2cc(Cl)ccc12", "activation": "37.7%"}
{"compound": "COc1cc2c3nnc(-c4ccc(C)cc4)c-3cn(Cc3ccc(F)cc3)c2cc1OC", "activation": "90.8%"}
